In ChEMBL document CHEMBL5550196, “Design, synthesis, and anticancer assessment of structural analogues of (E)-1-((3,4,5-trimethoxybenzylidene)amino)-4-(3,4,5-trimethoxyphenyl)imidazo[1,2-a]quinoxaline-2-carbonitrile (6b), an imidazo[1,2-a]quinoxaline-based non-covalent EGFR inhibitor” (RSC Med Chem, 2024):
Calls of active or inactive are those of the source. The calls are words filed in the database; no cut-off is given here.

Assays:
[1] = tested on: A549; test: cells; conditions: Homo sapiens, A549, 48 h
[2] = tested on: MCF7; test: cells; conditions: Homo sapiens, MCF7, 48 h
[3] = tested on: MDA-MB-231; test: cells; conditions: Homo sapiens, MDA-MB-231, 48 h
[4] = tested on: A549; test: Downregulation of KRAS gene expression in human A549 cells by SYBR green dye based qPCR analysis; type: functional, cell-based
[5] = tested on: A549; test: Downregulation of EGFR gene expression in human A549 cells by SYBR green dye based qPCR analysis; type: functional, cell-based
[6] = tested on: A549; test: Downregulation of MAP2K gene expression in human A549 cells by SYBR green dye based qPCR analysis; type: functional, cell-based
[7] = tested on: A549; test: Induction of mitochondrial membrane hyperpolarization in human A549 cells at 1 to 5 uM by JC-1 staining based fluorescence microplate reader assay; type: functional, cell-based; conditions: dose 1-5 µM
[8] = molecular target: T1, Epidermal growth factor receptor (Homo sapiens, UniProt P00533); test: Inhibition of EGFR (unknown origin) mediated phosphorylation incubated for 2 hrs in presence of ATP by Z-LYTE assay
T1 sequence (P00533 whole entry): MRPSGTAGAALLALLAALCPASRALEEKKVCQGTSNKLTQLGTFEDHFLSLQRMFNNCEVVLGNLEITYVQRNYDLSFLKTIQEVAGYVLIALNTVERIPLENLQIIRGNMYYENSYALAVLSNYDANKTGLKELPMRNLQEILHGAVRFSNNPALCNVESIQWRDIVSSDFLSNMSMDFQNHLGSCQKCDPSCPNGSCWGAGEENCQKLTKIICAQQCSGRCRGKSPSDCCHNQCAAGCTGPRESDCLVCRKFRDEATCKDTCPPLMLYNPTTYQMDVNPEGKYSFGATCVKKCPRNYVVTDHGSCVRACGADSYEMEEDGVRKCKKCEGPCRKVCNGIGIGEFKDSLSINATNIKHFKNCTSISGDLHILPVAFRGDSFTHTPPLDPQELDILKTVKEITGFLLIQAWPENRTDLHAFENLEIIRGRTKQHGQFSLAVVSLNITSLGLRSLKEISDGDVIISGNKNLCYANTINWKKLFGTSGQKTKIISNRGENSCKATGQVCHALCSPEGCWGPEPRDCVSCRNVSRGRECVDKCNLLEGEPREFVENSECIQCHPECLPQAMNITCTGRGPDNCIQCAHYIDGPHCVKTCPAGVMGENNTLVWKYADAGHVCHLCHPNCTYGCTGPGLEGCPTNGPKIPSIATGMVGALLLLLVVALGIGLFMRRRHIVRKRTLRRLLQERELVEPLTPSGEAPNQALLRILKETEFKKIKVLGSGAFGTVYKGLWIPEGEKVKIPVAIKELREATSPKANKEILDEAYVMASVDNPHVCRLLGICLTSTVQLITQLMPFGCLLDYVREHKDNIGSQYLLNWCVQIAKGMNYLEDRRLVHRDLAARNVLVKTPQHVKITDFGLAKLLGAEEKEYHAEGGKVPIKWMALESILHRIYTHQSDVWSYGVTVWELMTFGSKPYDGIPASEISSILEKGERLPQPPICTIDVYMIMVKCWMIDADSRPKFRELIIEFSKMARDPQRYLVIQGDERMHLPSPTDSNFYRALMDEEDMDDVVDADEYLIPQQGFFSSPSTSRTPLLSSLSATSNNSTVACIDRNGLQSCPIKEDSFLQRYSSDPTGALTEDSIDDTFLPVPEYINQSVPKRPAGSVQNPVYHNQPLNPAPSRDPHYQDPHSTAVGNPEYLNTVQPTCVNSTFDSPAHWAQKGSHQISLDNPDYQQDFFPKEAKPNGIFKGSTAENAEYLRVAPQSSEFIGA

[9] = tested on: A549; test: Inhibition of oxidative stress in human A549 cells assessed as reduction in ROS production at 1 to 5 uM by DCFH-DA staining based microplate reader analysis; type: functional, cell-based; conditions: dose 1-5 µM
[10] = molecular target: T1, Epidermal growth factor receptor; conditions: dose 200.0 nM, time 2.0 hrs

SMILES	IC50 [1] [µM]	IC50 [2] [µM]	IC50 [3] [µM]	IC50 [8] [µM]	inhibition [10] [%]	Activity [4]	Activity [5]	Activity [6]	Activity [7]	inhibition [9]
COc1cc(-c2nc3ccccc3n3c(/N=C/c4ccc(N(C)C)cc4)c(C#N)nc23)cc(OC)c1OC	13.2	24	6.41	–	–	–	–	–	–	–
C#Cc1cccc(Nc2ncnc3cc(OCCOC)c(OCCOC)cc23)c1	–	–	–	–	–	Active	Active	Active	–	–
COc1cc(-c2nc3ccccc3n3c(/N=C/c4c[nH]c5ccccc45)c(C#N)nc23)cc(OC)c1OC	> 25	8.99	> 25	–	–	–	–	–	–	–
COc1cc(-c2nc3ccccc3n3c(/N=C/c4ccncc4)c(C#N)nc23)cc(OC)c1OC	16.5	13.1	8.88	–	–	–	–	–	–	–
COc1cc(-c2nc3ccccc3n3c(/N=C/c4cc(F)ccc4[N+](=O)[O-])c(C#N)nc23)cc(OC)c1OC	3.25	9.99	11.4	–	–	–	–	–	–	–
COc1cc(-c2nc3ccccc3n3c(/N=C/c4ccsc4)c(C#N)nc23)cc(OC)c1OC	1.34	14.3	> 25	–	–	Active	Active	Active	Active	Active

Now from value to molecule, other results behind:

IC50 [1] [µM]	IC50 [2] [µM]	IC50 [3] [µM]	IC50 [8] [µM]	inhibition [10] [%]	SMILES	Activity [4]	Activity [5]	Activity [6]	Activity [7]	inhibition [9]
4.43	3.82	5.94	–	–	COc1cc(-c2nc3ccccc3n3c(/N=C/c4ccc(Cl)cc4)c(C#N)nc23)cc(OC)c1OC	–	–	–	–	–
4.27	23.9	8.66	–	–	COc1cc(-c2nc3ccccc3n3c(/N=C/c4cccnc4)c(C#N)nc23)cc(OC)c1OC	–	–	–	–	–
3.53	13.6	5.77	0.0759	> 50	COc1cccc(/C=N/c2c(C#N)nc3c(-c4cc(OC)c(OC)c(OC)c4)nc4ccccc4n23)c1	Active	Active	Active	Active	Active
